From patent publication US20240116985A1, “STAPLED PEPTIDES AND METHODS THEREOF” (priority 2020, published 2024)

Columns and labels:
[1] = molecular target: T1, beta-catenin/TCF4 engagement (Homo sapiens, UniProt P35222); experiment: Nano-BRET target engagement assay (B-cat-Halo & TCF4-Luc in HEK293 cells); format: cell-based; conditions: absolute IC50; read-out: NanoBRET Abs IC50
T1 construct: expressed in transfected cells; host or cells: HEK293
T1 sequence (P35222 1-781): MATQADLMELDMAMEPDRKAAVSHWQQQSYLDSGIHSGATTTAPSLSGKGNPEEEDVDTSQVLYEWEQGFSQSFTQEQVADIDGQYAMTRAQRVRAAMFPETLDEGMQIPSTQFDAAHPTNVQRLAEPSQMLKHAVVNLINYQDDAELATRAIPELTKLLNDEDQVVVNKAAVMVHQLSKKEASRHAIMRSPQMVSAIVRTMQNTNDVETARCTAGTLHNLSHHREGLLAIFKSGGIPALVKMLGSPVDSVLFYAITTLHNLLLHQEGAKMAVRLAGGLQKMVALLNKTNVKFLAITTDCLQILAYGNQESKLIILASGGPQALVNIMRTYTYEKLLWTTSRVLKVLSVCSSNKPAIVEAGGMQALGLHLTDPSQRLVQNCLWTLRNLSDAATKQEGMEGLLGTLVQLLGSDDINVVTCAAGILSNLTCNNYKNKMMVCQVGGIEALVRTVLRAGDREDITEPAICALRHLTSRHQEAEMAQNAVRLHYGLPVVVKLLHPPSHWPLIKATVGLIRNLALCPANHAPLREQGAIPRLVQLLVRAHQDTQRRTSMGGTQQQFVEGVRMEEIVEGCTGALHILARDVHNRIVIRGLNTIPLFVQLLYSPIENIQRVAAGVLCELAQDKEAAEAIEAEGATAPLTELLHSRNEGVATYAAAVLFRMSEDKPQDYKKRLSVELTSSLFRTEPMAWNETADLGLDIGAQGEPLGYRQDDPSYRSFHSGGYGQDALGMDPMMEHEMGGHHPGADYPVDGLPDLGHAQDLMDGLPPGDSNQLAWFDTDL

[2] = molecular target: T2, full-length beta-Catenin (Uniprot ID P35222) (Homo sapiens, UniProt P35222); experiment: Fluorescence polarization IC50 (beta-catenin / 5FAM-TCF4 10-53 competition); format: binding; conditions: fluorescence polarization; read-out: beta-Catenin FP IC50
T2 construct: 10 nM full-length beta-Catenin (Uniprot ID P35222)
T2 sequence (P35222 1-781): T1 sequence (P35222 1-781)

Compound | IC50 [1] | IC50 [2]
CC(=O)N1CCC[C@]12CC=CCCCC1(CCCC=CCCCOC(=O)N3CC[C@@](C(=O)N[C@@H](Cc4ccsc4)C(=O)N[C@@H](Cc4csc5ccccc45)C(=O)N[C@@H](CCC(N)=O)C(N)=O)(C3)NC(=O)[C@H](CC(C)C)NC(=O)[C@H](Cc3ccccc3)NC(=O)[C@H](C)NC(=O)[C@H](C)NC(=O)[C@H](CC(=O)O)NC(=O)[C@H](CC(=O)O)NC1=O)NC(=O)[C@H](CO)NC(=O)[C@H](CC(=O)O)NC2=O (stereo partly drawn) [I-1513, Ac-PL3-Asp-Ser-B5-Asp-Asp-Ala-Ala-Phe-Leu-PyrS2-3Thi-BztA-Gln-NH2] | > 20000 nM | 21 nM
CC(=O)N1CCC[C@]12CC=CCCCC1(CCCC=CCCCOC(=O)N3CC[C@@](C(=O)N[C@@H](Cc4ccsc4)C(=O)N[C@@H](Cc4csc5ccccc45)C(=O)N[C@@H](CCC(N)=O)C(N)=O)(C3)NC(=O)[C@H](CC(C)C)NC(=O)[C@H](Cc3ccccc3)NC(=O)[C@H](C)NC(=O)[C@H](C)NC(=O)[C@H](CC(=O)O)NC(=O)[C@H](CC(=O)O)NC1=O)NC(=O)[C@H]([C@@H](C)O)NC(=O)[C@H](CC(=O)O)NC2=O (stereo partly drawn) [I-1515, Ac-PL3-Asp-Thr-B5-Asp-Asp-Ala-Ala-Phe-Leu-PyrS2-3Thi-BztA-Gln-NH2] | > 20000 nM | 24 nM
CC(=O)N1CCC[C@]12CC=CCCCC1(CCCC=CCCCOC(=O)N3CC[C@@](C(=O)N[C@@H](Cc4ccsc4)C(=O)N[C@@H](Cc4csc5ccccc45)C(=O)N[C@@H](CCO)C(N)=O)(C3)NC(=O)[C@H](CC(C)C)NC(=O)[C@H](Cc3ccccc3)NC(=O)[C@H](C)NC(=O)[C@H](C)NC(=O)[C@H](CC(=O)O)NC(=O)[C@H](CC(=O)O)NC1=O)NC(=O)[C@H]([C@@H](C)O)NC(=O)[C@H](CC(=O)O)NC2=O (stereo partly drawn) [I-1516, Ac-PL3-Asp-Thr-B5-Asp-Asp-Ala-Ala-Phe-Leu-PyrS2-3Thi-BztA-Hse-NH2] | > 20000 nM | 30 nM
CC(=O)N1CCC[C@]12CC=CCCCC1(CCCC=CCCCOC(=O)N3CC[C@@](C(=O)N[C@@H](Cc4ccsc4)C(=O)N[C@@H](Cc4csc5ccccc45)C(=O)N[C@@H](CCC(N)=O)C(N)=O)(C3)NC(=O)[C@H](CC(C)C)NC(=O)[C@H](Cc3ccccc3)NC(=O)[C@H](C)NC(=O)[C@H](C)NC(=O)[C@H](CC(=O)O)NC(=O)[C@H](CC(=O)O)NC1=O)NC(=O)[C@H](CC(N)=O)NC(=O)[C@H](CC(=O)O)NC2=O (stereo partly drawn) [I-1517, Ac-PL3-Asp-Asn-B5-Asp-Asp-Ala-Ala-Phe-Leu-PyrS2-3Thi-BztA-Gln-NH2] | > 20000 nM | 32 nM
CC(=O)N1CCC[C@]12CC=CCCCC1(CCCC=CCCCOC(=O)N3CC[C@@](C(=O)N[C@@H](Cc4ccsc4)C(=O)N[C@@H](Cc4csc5ccccc45)C(=O)N[C@@H](CCC(N)=O)C(N)=O)(C3)NC(=O)[C@H](CC(C)C)NC(=O)[C@H](Cc3ccccc3)NC(=O)[C@H](C)NC(=O)[C@H](C)NC(=O)[C@H](CC(=O)O)NC(=O)[C@H](CC(=O)O)NC1=O)NC(=O)[C@H](CC1CCCCC1)NC(=O)[C@H](CC(=O)O)NC2=O (stereo partly drawn) [I-1519, Ac-PL3-Asp-Cha-B5-Asp-Asp-Ala-Ala-Phe-Leu-PyrS2-3Thi-BztA-Gln-NH2] | 12800 nM | 10 nM
CC(=O)N1CCC[C@]12CC=CCCCC1(CCCC=CCCCOC(=O)N3CC[C@@](C(=O)N[C@@H](Cc4ccsc4)C(=O)N[C@@H](Cc4csc5ccccc45)C(=O)N[C@@H](CCO)C(N)=O)(C3)NC(=O)[C@H](CC(C)C)NC(=O)[C@H](Cc3ccccc3)NC(=O)[C@H](C)NC(=O)[C@H](C)NC(=O)[C@H](CC(=O)O)NC(=O)[C@H](CC(=O)O)NC1=O)NC(=O)[C@H](CC1CCCCC1)NC(=O)[C@H](CC(=O)O)NC2=O (stereo partly drawn) [I-1520, Ac-PL3-Asp-Cha-B5-Asp-Asp-Ala-Ala-Phe-Leu-PyrS2-3Thi-BztA-Hse-NH2] | 17400 nM | 11 nM
CCCC[C@@H]1NC(=O)[C@H](CC(=O)O)NC(=O)[C@]2(CC=CCCCC3(CCCC=CCCCCCC[C@@](C)(C(=O)N[C@@H](Cc4ccccc4)C(=O)N[C@@H](Cc4csc5ccccc45)C(=O)N[C@@H](CCC(N)=O)C(N)=O)NC(=O)[C@H](CCC(N)=O)NC(=O)[C@H](Cc4ccccc4)NC(=O)[C@H](C)NC(=O)[C@H](C)NC(=O)[C@H](CCC(=O)O)NC(=O)[C@H](CC(=O)O)NC3=O)NC1=O)CCCN2C(C)=O (stereo partly drawn) [I-1521, Ac-PL3-Asp-nLeu-B5-Asp-Glu-Ala-Ala-Phe-Gln-S8-Phe-BztA-Gln-NH2] | 6000 nM | 16 nM
CCCC[C@@H]1NC(=O)[C@H](CC(=O)O)NC(=O)[C@]2(CC=CCCCC3(CCCC=CCCCCCC[C@@](C)(C(=O)N[C@@H](Cc4ccccc4)C(=O)N[C@@H](Cc4csc5ccccc45)C(=O)N[C@@H](CCC(N)=O)C(N)=O)NC(=O)[C@H](CCC(N)=O)NC(=O)[C@H](Cc4ccccc4)NC(=O)[C@H](C)NC(=O)[C@H](C)NC(=O)[C@H](CCC(=O)O)NC(=O)[C@H](CC(=O)O)NC3=O)NC1=O)CCCN2C(C)=O (stereo partly drawn) [I-1522, Ac-PL3-Asp-nLeu-B5-Asp-Glu-Ala-Ala-Phe-Gln-S8-Phe-BztA-Gln-NH2] | 5800 nM | 6 nM
CCCC[C@@H]1NC(=O)[C@H](CC(=O)O)NC(=O)[C@]2(CC=CCCCC3(CCCC=CCCCCCC[C@@](C)(C(=O)N[C@@H](Cc4ccccc4)C(=O)N[C@@H](Cc4csc5ccccc45)C(=O)N[C@@H](CCC(N)=O)C(N)=O)NC(=O)[C@H](CC(C)C)NC(=O)[C@H](Cc4ccccc4)NC(=O)[C@H](C)NC(=O)[C@H](C)NC(=O)[C@H](CCC(=O)O)NC(=O)[C@H](CC(=O)O)NC3=O)NC1=O)CCCN2C(C)=O (stereo partly drawn) [I-1523, Ac-PL3-Asp-nLeu-B5-Asp-Glu-Ala-Ala-Phe-Leu-S8-Phe-BztA-Gln-NH2] | 8000 nM | 29 nM
CCCC[C@@H]1NC(=O)[C@H](CC(=O)O)NC(=O)[C@]2(CC=CCCCC3(CCCC=CCCCCCC[C@@](C)(C(=O)N[C@@H](Cc4ccccc4)C(=O)N[C@@H](Cc4csc5ccccc45)C(=O)N[C@@H](CCC(N)=O)C(N)=O)NC(=O)[C@H](CCO)NC(=O)[C@H](Cc4ccccc4)NC(=O)[C@H](C)NC(=O)[C@H](C)NC(=O)[C@H](CCC(=O)O)NC(=O)[C@H](CC(=O)O)NC3=O)NC1=O)CCCN2C(C)=O (stereo partly drawn) [I-1524, Ac-PL3-Asp-nLeu-B5-Asp-Glu-Ala-Ala-Phe-Hse-S8-Phe-BztA-Gln-NH2] | 8100 nM | 17 nM
CCCC[C@@H]1NC(=O)[C@H](CC(=O)O)NC(=O)[C@]2(CC=CCCCC3(CCCC=CCCCCCC[C@@](C)(C(=O)N[C@@H](Cc4ccccc4)C(=O)N[C@@H](Cc4csc5ccccc45)C(=O)N[C@@H](CCC(N)=O)C(N)=O)NC(=O)[C@H](CCO)NC(=O)[C@H](Cc4ccccc4)NC(=O)[C@H](C)NC(=O)[C@H](C)NC(=O)[C@H](CCC(=O)O)NC(=O)[C@H](CC(=O)O)NC3=O)NC1=O)CCCN2C(C)=O (stereo partly drawn) [I-1525, Ac-PL3-Asp-nLeu-B5-Asp-Glu-Ala-Ala-Phe-Hse-S8-Phe-BztA-Gln-NH2] | 10800 nM | 22 nM
CC(=O)N1CCC[C@]12CC=CCCCC1(CCCC=CCCCCCC[C@@](C)(C(=O)N[C@@H](Cc3ccccc3)C(=O)N[C@@H](Cc3csc4ccccc34)C(=O)N[C@@H](CCC(N)=O)C(N)=O)NC(=O)[C@H](CCC(N)=O)NC(=O)[C@H](Cc3ccccc3)NC(=O)[C@H](C)NC(=O)[C@H](C)NC(=O)[C@H](CCC(=O)O)NC(=O)[C@H](CC(=O)O)NC1=O)NC(=O)[C@H](CO)NC(=O)[C@H](CC(=O)O)NC2=O (stereo partly drawn) [I-1526, Ac-PL3-Asp-Ser-B5-Asp-Glu-Ala-Ala-Phe-Gln-S8-Phe-BztA-Gln-NH2] | > 20000 nM | 84 nM
